From patent US10813914B2, “Composition for controlling microsporidia in fishes and method for controlling microsporidia in fishes using same” (MARUHA NICHIRO CORPORATION, priority 2016, dated 2020)
Marks after values point to notes of the source that are not given here.

Legend:
[1] = system: microsporidian cyst (beko cyst), beko disease; test: Prevention test of beko disease in Mojako using fenbendazole (1-1); assay type: in vivo, “Mojako” (yellowtail larva); conditions: 20 mg/kg Bw oral, 6 times/week, 6 weeks, 10 fishes tested; for Positive average per fish (average number of beko cyst per fish): p < 0.05 vs control
Description: 1-1: Prevention Test of Beko Disease in “Mojako” Using Fenbendazole
The prevention test was conducted according to the following procedure.
(§1) Test number: Live 1000 fishes (each initial body weight: 12 g)
(§2) Administration method: oral administration (feed together with spreading agent)
Drug used: fenbendazole (compound represented by the above-described formula (1))
(§3) Administration amount: 20 mg/kg Bw (20 mg per kg of fish body weight)
Interval between administration: 6 times/week
A sampling test was carried out according to the following procedure:
Six weeks after the start of administration, each 10 fishes of “Mojako” were taken out from each test group (a control group (the test was conducted under the same conditions as the above-described test conditions, except that the feed fed contained no fenbendazole) and a fenbendazole group), and each fish was cut into three pieces. It was then visually tested whether the microsporidian cyst (beko cyst) was found in the pieces. When the beko cyst was observed, it was judged as positive and the results were accumulated. Regarding the beko cyst that could be confirmed with the naked eye, the number was confirmed and the average infection number per one fish was determined.

[2] = system: microsporidian cyst (beko cyst), beko disease; test: Prevention test of beko disease in Mojako using flubendazole (1-2); assay type: in vivo, “Mojako” (yellowtail larva); conditions: 20 mg/kg Bw oral, 6 times/week, 4 weeks, 10 fishes tested; for Positive average per fish (average number of beko cyst per fish): p < 0.05 vs control
Description: 1-2. Prevention Test of Beko Disease in “Mojako” Using Flubendazole
A preliminary test was carried out according to the following procedure:
as §1, §2
Drug used: flubendazole (compound represented by the above-described formula (6))
as §3
(§4) Administration interval: 6 times/week
Sampling test procedure: same as above 1-1

[3] = system: microsporidian cyst (beko cyst), beko disease; test: Prevention test of beko disease in Kanpachi using triclabendazole (1-8); assay type: in vivo, “Kanpachi” (great amberjack); conditions: 40 mg/kg Bw oral, 6 times/week
Description: A Prevention test of the beko disease in “Kanpachi” was carried out using triclabendazole. The preliminary test was performed according to the following procedure:
Test number: Live 1000 fishes (each initial body weight: 50 g)
as §2
Drug used: triclabendazole (compound represented by the above-described formula (10))
Administration amount: 40 mg/kg Bw (40 mg per kg of fish body weight)
as §4
Sampling test procedure: same as in the above-described 1-1

Heterosporis anguillarum = conditions: beko disease of eels, Non-Patent Document 2; cited from earlier work
microsporidia = conditions: culture test, Non-Patent Documents 3 to 7; cited from earlier work
Glugea plecoglossi = conditions: glugeosis of Ayu, Non-Patent Document 1; cited from earlier work

Which “Number of Beko cyst” value [1] does the source give for `COC(=O)Nc1nc2cc(Sc3ccccc3)ccc2[nH]1` [Fenbendazole, fenbendazole] here?
The value was 30.

And the “Number of positive fishes” value [1]?
The value was 6.

And the “Positive average per fish (average number of beko cyst per fish)” value (“Positive average per fish” below) [1]?
Its value is 3.5 ± 3.83.

What about the “Positive average per fish” value ([1]; listed as fenbendazole) of the same molecule?
Its value is 3.5±3.83.

Which “Number of Beko cyst” value [2] does the source give for `COC(=O)Nc1nc2cc(C(=O)c3ccc(F)cc3)ccc2[nH]1` [Flubendazole, flubendazole] here?
The value was 10.

What about the “Number of positive fishes” value [2] of the same molecule?
The value was 5.

What about the “Positive average per fish” value [2] of the same molecule?
The value was 1.0 ± 1.1.

What about the “Positive average per fish” value ([2]; listed as flubendazole) of the same molecule?
The value was 1.0±1.1.

What does the source list for `CSc1nc2cc(Cl)c(Oc3cccc(Cl)c3Cl)cc2[nH]1` [Triclabendazole, triclabendazole]?
Positive fishes (beko cyst) / fishes sampled ([3]; 8 Weeks, p < 0.001, 40 mg/kg): 0/50***; Positive fishes (beko cyst) / fishes sampled ([3]; 8 Weeks, p < 0.001, listed as triclabendazole, 40 mg/kg): significantly suppressed generation of the beko cyst; Positive fishes (beko cyst) / fishes sampled ([3]; at administration start time): 0/20

What does the source list for `CO[C@@H]1[C@H](OC(=O)/C=C/C=C/C=C/C=C/C(=O)O)CC[C@]2(CO2)[C@H]1[C@@]1(C)O[C@@H]1CC=C(C)C` [fumagillin]?
Therapeutic efficacy (Heterosporis anguillarum): high therapeutic efficacy was recognized; Antimicrobial activity against microsporidia (microsporidia): high antimicrobial activity; Therapeutic efficacy (Glugea plecoglossi): high therapeutic efficacy was recognized
